{
  "source": "patent US10219516B2",
  "about": "“Molecules having pesticidal utility, and intermediates, compositions, and processes, related thereto” (priority 2015, dated 2019)",
  "format_in_all_cases": "in vivo",
  "key": {"[1]": {"system": "Beet Armyworm (Spodoptera exigua, LAPHEG)", "test": "Bioassay on Beet Armyworm (BAW), 128-well diet tray assay", "method_in_brief": "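Diet in each of eight wells received 50 μg/cm^2 of test molecule (90:10 acetone-water, dried), then one to five second-instar larvae were added. Mortality (%) was scored after five to seven days at 25° C. under 14:10 light-dark and averaged across the wells.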"}, "[2]": {"system": "Cabbage Looper (Trichoplusia ni, TRIPNI)", "test": "Bioassay on Cabbage Looper (CL), 128-well diet tray assay", "details": "Trichoplusia ni", "method_in_brief": "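Second-instar larvae, one to five per well, placed on artificial diet treated with 50 μg/cm^2 test molecule in 90:10 acetone-water, dried before infestation. Held 5–7 days at 25° C, 14:10 light-dark; percent mortality averaged over eight wells.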"}, "[3]": {"system": "Yellow Fever Mosquito (Aedes aegypti, AEDSAE)", "test": "Bioassay on Yellow Fever Mosquito (YFM), 96-well plate larval assay", "details": "for YFM (Biological Results, rating): Species YFM (Yellow Fever Mosquito); for YFM rating: Yellow Fever Mosquito, 96-well plate larval assay", "method_in_brief": "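Aedes aegypti larvae (about 1 day old) in liver-powder water were added to plates dispensed from DMSO master plates (4000 ppm stock) diluted with 90:10 water/acetone; six replicate plates per master. Lidded plates were held at room temperature for 3 days, then each well was scored for mortality.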"}, "[4]": {"details": "Species BAW (Beet Armyworm), read-out: BAW (Biological Results, rating)"}, "[5]": {"details": "Species CL (Cabbage Looper), read-out: CL (Biological Results, rating)"}, "[6]": {"details": "Beet Armyworm, 128-well diet tray assay, read-out: BAW rating"}, "[7]": {"details": "Cabbage Looper, 128-well diet tray assay, read-out: CL rating"}},
  "note": "Read-outs that look alike come from different tables or passages of the source.",
  "data": [
    {"smiles": "O=C(Nc1ncc(F)cn1)c1cc(NC(=O)[C@H]2[C@H](c3cc(Cl)cc(Cl)c3)C2(Cl)Cl)ccc1Cl", "note": "(relative stereo) [F222, trans-2-Chloro-5-(2,2-dichloro-3-(3,5-dichlorophenyl)cyclopropane-1-carboxamido)-N-(5-fluoropyrimidin-2-yl)benzamide]", "values": [
      {"measurement": "pest or weed control at 50 µg/cm2", "setting": "[1]; [4]", "value": "50 to 100", "unit": "%"},
      {"measurement": "pest or weed control at 50 µg/cm2", "setting": "[2]; [5]", "value": "50 to 100", "unit": "%"},
      {"measurement": "YFM (Biological Results, rating)", "setting": "[3]", "value": "A (80-100)"}
    ]},
    {"smiles": "O=C(Nc1ncc(F)c(I)c1F)c1cc(NC(=O)[C@H]2[C@H](c3cc(Cl)cc(Cl)c3)C2(Cl)Cl)ccc1Cl", "note": "(relative stereo) [F388, 2-Chloro-5-(trans-2,2-dichloro-3-(3,5-dichlorophenyl)cyclopropane-1-carboxamido)-N-(3,5-difluoro-4-iodopyridin-2-yl)benzamide]", "values": [
      {"measurement": "pest or weed control at 50 µg/cm2", "setting": "[1]; [6]", "value": "50 to 100", "unit": "%"},
      {"measurement": "pest or weed control at 50 µg/cm2", "setting": "[2]; [7]", "value": "50 to 100", "unit": "%"},
      {"measurement": "YFM rating", "setting": "[3]", "value": "A (80-100)"}
    ]},
    {"smiles": "C=Cc1ccc([C@H]2[C@H](C(=O)Nc3ccc(Cl)c(C(=O)Nc4ccc(F)cc4F)c3)C2(Cl)Cl)cc1C(F)(F)F", "note": "(relative stereo) [F391, 2-Chloro-5-(trans-2,2-dichloro-3-(3-(trifluoromethyl)-4-vinylphenyl)cyclopropane-1-carboxamido)-N-(2,4-difluorophenyl)benzamide]", "values": [
      {"measurement": "pest or weed control at 50 µg/cm2", "setting": "[1]; [6]", "value": "50 to 100", "unit": "%"},
      {"measurement": "pest or weed control at 50 µg/cm2", "setting": "[2]; [7]", "value": "50 to 100", "unit": "%"},
      {"measurement": "YFM rating", "setting": "[3]", "value": "A (80-100)"}
    ]},
    {"smiles": "Cc1cc(NC(=O)OC(C)(C)C)ccc1NC(=O)c1cc(NC(=O)[C@H]2[C@H](c3ccc(Cl)c(Cl)c3)C2(Cl)Cl)ccc1Cl", "note": "[F277, tert-Butyl (4-(2-chloro-5-((1R,3R)-2,2-dichloro-3-(3,4-dichlorophenyl)cyclopropane-1-carboxamido)benzamido)-3-methylphenyl)carbamate]", "values": [
      {"measurement": "pest or weed control at 50 µg/cm2", "setting": "[1]; [4]", "value": "50 to 100", "unit": "%"},
      {"measurement": "pest or weed control at 50 µg/cm2", "setting": "[2]; [5]", "value": "50 to 100", "unit": "%"},
      {"measurement": "YFM (Biological Results, rating)", "setting": "[3]", "value": "A (80-100)"}
    ]},
    {"smiles": "Cc1cc2cc(NC(=O)c3cc(NC(=O)C4C(c5cc(Cl)cc(Cl)c5)C4(Cl)Cl)ccc3Cl)ccc2[nH]1", "note": "(stereo not drawn) [F454, 2-Chloro-5-(trans)-2,2-dichloro-3-(3,5-dichlorophenyl)cyclopropane-1-carboxamido)-N-(2-methyl-1H-indol-5-yl)benzamide]", "values": [
      {"measurement": "pest or weed control at 50 µg/cm2", "setting": "[1]; [6]", "value": "50 to 100", "unit": "%"},
      {"measurement": "pest or weed control at 50 µg/cm2", "setting": "[2]; [7]", "value": "50 to 100", "unit": "%"},
      {"measurement": "YFM rating", "setting": "[3]", "value": "A (80-100)"}
    ]},
    {"smiles": "C#Cc1cc([C@H]2[C@H](C(=O)Nc3ccc(Cl)c(C(=O)Nc4ccc(F)cc4)c3)C2(Cl)Cl)ccc1Cl", "note": "(relative stereo) [F410, 2-Chloro-5-(trans-2,2-dichloro-3-(4-chloro-3-ethynylphenyl)cyclopropane-1-carboxamido)-N-(4-fluorophenyl)benzamide]", "values": [
      {"measurement": "pest or weed control at 50 µg/cm2", "setting": "[1]; [6]", "value": "50 to 100", "unit": "%"},
      {"measurement": "pest or weed control at 50 µg/cm2", "setting": "[2]; [7]", "value": "50 to 100", "unit": "%"},
      {"measurement": "YFM rating", "setting": "[3]", "value": "A (80-100)"}
    ]},
    {"smiles": "C=C(F)c1ccc([C@H]2[C@H](C(=O)Nc3ccc(Cl)c(C(=O)Nc4ccc(F)cc4)c3)C2(Cl)Cl)cc1Cl", "note": "(relative stereo) [F382, 2-Chloro-5-(trans-2,2-dichloro-3-(3-chloro-4-(1-fluorovinyl)phenyl)cyclopropane-1-carboxamido)-N-(4-fluorophenyl)benzamide]", "values": [
      {"measurement": "pest or weed control at 50 µg/cm2", "setting": "[1]; [6]", "value": "50 to 100", "unit": "%"},
      {"measurement": "pest or weed control at 50 µg/cm2", "setting": "[2]; [7]", "value": "50 to 100", "unit": "%"},
      {"measurement": "YFM rating", "setting": "[3]", "value": "A (80-100)"}
    ]},
    {"smiles": "CN(C(=O)c1cc(NC(=O)[C@H]2[C@H](c3cc(Cl)cc(Cl)c3)C2(Cl)Cl)ccc1F)c1ccc(F)cc1F", "note": "(relative stereo) [F63, trans-5-(2,2-Dichloro-3-(3,5-dichlorophenyl)cyclopropane-1-carboxamido)-N-(2,4-difluorophenyl)-2-fluoro-N-methylbenzamide]", "values": [
      {"measurement": "pest or weed control at 50 µg/cm2", "setting": "[1]; [4]", "value": "50 to 100", "unit": "%"},
      {"measurement": "pest or weed control at 50 µg/cm2", "setting": "[2]; [5]", "value": "50 to 100", "unit": "%"},
      {"measurement": "YFM (Biological Results, rating)", "setting": "[3]", "value": "A (80-100)"}
    ]},
    {"smiles": "CN(C(=O)c1cc(NC(=O)[C@H]2[C@H](c3cc(Cl)cc(Cl)c3)C2(Cl)Cl)ccc1Cl)c1ccc(F)cc1", "note": "[F169, 2-Chloro-5-((1R,3R)-2,2-dichloro-3-(3,5-dichlorophenyl)cyclopropane-1-carboxamido)-N-(4-fluorophenyl)-N-methylbenzamide]", "values": [
      {"measurement": "pest or weed control at 50 µg/cm2", "setting": "[1]; [4]", "value": "50 to 100", "unit": "%"},
      {"measurement": "pest or weed control at 50 µg/cm2", "setting": "[2]; [5]", "value": "50 to 100", "unit": "%"},
      {"measurement": "YFM (Biological Results, rating)", "setting": "[3]", "value": "A (80-100)"}
    ]},
    {"smiles": "COc1cc(NC(=O)c2cc(NC(=O)[C@H]3[C@H](c4cc(Cl)cc(Cl)c4)C3(Cl)Cl)ccc2Cl)ccn1", "note": "(relative stereo) [F544, 2-Chloro-5-(trans-2,2-dichloro-3-(3,5-dichlorophenyl)cyclopropane-1-carboxamido)-N-(2-methoxypyridin-4-yl)benzamide]", "values": [
      {"measurement": "pest or weed control at 50 µg/cm2", "setting": "[1]; [6]", "value": "50 to 100", "unit": "%"},
      {"measurement": "pest or weed control at 50 µg/cm2", "setting": "[2]; [7]", "value": "50 to 100", "unit": "%"},
      {"measurement": "YFM rating", "setting": "[3]", "value": "A (80-100)"}
    ]},
    {"smiles": "O=C(Nc1ccc(F)cc1F)c1cc(NC(=O)[C@H]2[C@H](c3ccc(C(F)F)c(Cl)c3)C2(Cl)Cl)ccc1Cl", "note": "(relative stereo) [F562, 2-Chloro-5-(trans-2,2-dichloro-3-(3-chloro-4-(difluoromethyl)phenyl)cyclopropane-1-carboxamido)-N-(2,4-difluorophenyl)benzamide]", "values": [
      {"measurement": "pest or weed control at 50 µg/cm2", "setting": "[1]; [6]", "value": "50 to 100", "unit": "%"},
      {"measurement": "pest or weed control at 50 µg/cm2", "setting": "[2]; [7]", "value": "50 to 100", "unit": "%"},
      {"measurement": "YFM rating", "setting": "[3]", "value": "A (80-100)"}
    ]},
    {"smiles": "O=C(Nc1ccc2c(c1)CCCN2)c1cc(NC(=O)[C@H]2[C@H](c3cc(Cl)cc(Cl)c3)C2(Cl)Cl)ccc1Cl", "note": "(relative stereo) [F492, 2-Chloro-5-(trans)-(2,2-dichloro-3-(3,5-dichlorophenyl)cyclopropane-1-carboxamido)-N-(1,2,3,4-tetrahydroquinolin-6-yl)benzamide]", "values": [
      {"measurement": "pest or weed control at 50 µg/cm2", "setting": "[1]; [6]", "value": "50 to 100", "unit": "%"},
      {"measurement": "pest or weed control at 50 µg/cm2", "setting": "[2]; [7]", "value": "50 to 100", "unit": "%"},
      {"measurement": "YFM rating", "setting": "[3]", "value": "A (80-100)"}
    ]},
    {"smiles": "O=C(Nc1ccc(F)cc1F)c1cc(NC(=O)[C@H]2[C@H](c3cc(Br)cc(C(F)(F)F)c3)C2(Cl)Cl)ccc1Cl", "note": "(relative stereo) [F424, 5-(trans)-(3-(3-Bromo-5-(trifluoromethyl)phenyl)-2,2-dichlorocyclopropane-1-carboxamido)-2-chloro-N-(2,4-difluorophenyl)benzamide]", "values": [
      {"measurement": "pest or weed control at 50 µg/cm2", "setting": "[1]; [6]", "value": "50 to 100", "unit": "%"},
      {"measurement": "pest or weed control at 50 µg/cm2", "setting": "[2]; [7]", "value": "50 to 100", "unit": "%"},
      {"measurement": "YFM rating", "setting": "[3]", "value": "A (80-100)"}
    ]},
    {"smiles": "O=C(Nc1cnc2cc[nH]c2c1)c1cc(NC(=O)C2C(c3cc(Cl)cc(Cl)c3)C2(Cl)Cl)ccc1Cl", "note": "(stereo not drawn) [F437, 2-Chloro-5-(trans)-2,2-dichloro-3-(3,5-dichlorophenyl)cyclopropane-1-carboxamido)-N-(1H-pyrrolo[3,2-b]pyridin-6-yl)benzamide]", "values": [
      {"measurement": "pest or weed control at 50 µg/cm2", "setting": "[1]; [6]", "value": "50 to 100", "unit": "%"},
      {"measurement": "pest or weed control at 50 µg/cm2", "setting": "[2]; [7]", "value": "50 to 100", "unit": "%"},
      {"measurement": "YFM rating", "setting": "[3]", "value": "B (More than 0-Less than 80)"}
    ]},
    {"smiles": "COc1cc(NC(=O)c2cc(NC(=O)[C@H]3[C@H](c4cc(Cl)cc(Cl)c4)C3(Cl)Cl)ccc2Cl)c(Br)cn1", "note": "(relative stereo) [F548, N-(5-Bromo-2-methoxypyridin-4-yl)-2-chloro-5-(trans-2,2-dichloro-3-(3,5-dichlorophenyl)cyclopropane-1-carboxamido)benzamide]", "values": [
      {"measurement": "pest or weed control at 50 µg/cm2", "setting": "[1]; [6]", "value": "50 to 100", "unit": "%"},
      {"measurement": "pest or weed control at 50 µg/cm2", "setting": "[2]; [7]", "value": "50 to 100", "unit": "%"},
      {"measurement": "YFM rating", "setting": "[3]", "value": "A (80-100)"}
    ]},
    {"smiles": "N#Cc1cc(N)ccc1NC(=O)c1cc(NC(=O)[C@H]2[C@H](c3cc(Cl)cc(Cl)c3)C2(Cl)Cl)ccc1Cl", "note": "(relative stereo) [F236, trans-N-(4-amino-2-cyanophenyl)-2-chloro-5-(2,2-dichloro-3-(3,5-dichlorophenyl)cyclopropane-1-carboxamido)benzamide]", "values": [
      {"measurement": "pest or weed control at 50 µg/cm2", "setting": "[1]; [4]", "value": "50 to 100", "unit": "%"},
      {"measurement": "pest or weed control at 50 µg/cm2", "setting": "[2]; [5]", "value": "50 to 100", "unit": "%"},
      {"measurement": "YFM (Biological Results, rating)", "setting": "[3]", "value": "A (80-100)"}
    ]}
  ]
}
